# Legend:
# [1] = system: Coliforms; assay: microbiological quality of treated hamburgers and fresh sausage: coliform count (MPN)
# Description: (§1) The tests were conducted on meat products such as hamburgers and fresh sausage at different doses, with and without the usual preservatives (sulfites).
# (§2) Each sample is prepared in quintuplicate and microbiological quality control over time is conducted, a triplicate of each sample being performed.
# The method used to detect lactose-positive enterobacteria (coliforms) is based on its capacity to ferment lactose with the production of acid and gas in the presence of bile salts.
# To that end a count was performed in liquid medium to determine a MPN on Brilliant Green Bile Lactose Broth (Merck Brila Broth).
# Said Brilliant Broth is prepared in a test tube rack with 3 series of three tubes for each one of the samples to be analyzed. Each tube contains 10 ml of Brila Broth and 1 Durham tube.
# 1 mL of the dilution of the sample at 1:10 or (−1) is poured into each one of the tubes of the first series.
# 1 mL of the dilution of the sample at 1:100 or (−2) is poured into each one of the tubes of the second series.
# 1 mL of the dilution of the sample at 1:1000 or (−3) is poured into each one of the tubes of the third series.
# The three series are incubated at 31±1° C., taking a reading at 24 and 48 hours.
# The reaction is positive when gas discharge occurs inside the Durham tube, at least in 1/10 of its volume.
# The Most Probable Number (MPN) table is used with the number of positive tubes in each series, and the data is extrapolated.
# The result is finally expressed as the coliform count per gram of sample.
# (§3) Two different raw meat products (sausages and hamburgers) treated with different allicin doses are prepared. • The used testing doses were: 25, 50 and 100 ppm.
# (§4) Five samples of each product (hamburger and sausage) are prepared, each one of them being analyzed in triplicate.
# (§5) The microbiological parameters analyzed were as follows: • Total mesophilic aerobes • Coliforms • Escherichia coli • Salmonella (presence/absence in 25 g) • Said parameters were analyzed at different times: • 0 days • 4 days • 7 days • The sample references resulted as follows: […]
# [2] = system: Escherichia coli; assay: microbiological quality of treated hamburgers and fresh sausage: Escherichia coli count
# Description: as §1, §2
# The positive Brila Broth tubes obtained in the coliform study are used according to the following protocol:
# All the tubes having gas production are subcultured again with an inoculation loop in tubes containing 10 mL of Brila Broth (with a Durham tube), being incubated at 44.5° C. for 24-48 hours.
# Once the incubation has elapsed the existence of Escherichia coli is assumed in any tube with growth and with gas formation under the previously discussed conditions.
# Eosine Methylene Blue (Merck EMB) was used as a selective confirmation medium, isolating on dishes containing EMB from all the positive tubes. The occurrence of colonies measuring 2-3 mm in diameter (planar or slightly concave), with dark almost black centers occupying ¾ of the colony which, with reflected light, sometimes show a greenish metallic glow, which are most likely Escherichia coli, the confirmation of which is done by means of the indole biochemistry test.
# When positive growth (gas) in Brila Broth at 44.5° C., indole production and characteristic growth on EMB agar coincide, the reading is done in the MPN table and the data is extrapolated.
# The result is expressed as the number of
# Escherichia coli per gram of sample.
# as §3, §4, §5
# [3] = hamburger, 25 ppm of allicin (H-1), t = 0 days
# [4] = hamburger, 25 ppm of allicin (H-1), t = 4 days
# [5] = hamburger, 50 ppm of allicin (H-2), t = 0 days
# [6] = hamburger, 50 ppm of allicin (H-2), t = 4 days
# [7] = hamburger, 100 ppm of allicin (H-3), t = 0 days
# [8] = hamburger, 100 ppm of allicin (H-3), t = 4 days
# [9] = sausage, 25 ppm of allicin (S-1), t = 0 days
# [10] = sausage, 25 ppm of allicin (S-1), t = 4 days
# [11] = sausage, 50 ppm of allicin (S-2), t = 0 days
# [12] = sausage, 50 ppm of allicin (S-2), t = 4 days
# [13] = sausage, 100 ppm of allicin (S-3), t = 0 days
# [14] = sausage, 100 ppm of allicin (S-3), t = 4 days
smiles,measurement,setting,value
"C=CCS[S+]([O-])CC=C (stereo not drawn) [Allicin, allyl allylthiosulfinate]",Coliforms,[1]; [3],150 cfu/g
same,Coliforms,[1]; [4],>2400 cfu/g
same,Coliforms,[1]; [5],150 cfu/g
same,Coliforms,[1]; [6],1100 cfu/g
same,Coliforms,[1]; [7],150 cfu/g
same,Coliforms,[1]; [8],150 cfu/g
same,Coliforms,[1]; [9],3 cfu/g
same,Coliforms,[1]; [10],21 cfu/g
same,Coliforms,[1]; [11],<3 cfu/g
same,Coliforms,[1]; [12],7 cfu/g
same,Coliforms,[1]; [13],<3 cfu/g
same,Coliforms,[1]; [14],<3 cfu/g
same,Escherichia coli,[2]; [3],23 cfu/g
same,Escherichia coli,[2]; [4],150 cfu/g
same,Escherichia coli,[2]; [5],23 cfu/g
same,Escherichia coli,[2]; [6],150 cfu/g
same,Escherichia coli,[2]; [7],23 cfu/g
same,Escherichia coli,[2]; [8],43 cfu/g
same,Escherichia coli,[2]; [9],<3 cfu/g
same,Escherichia coli,[2]; [10],4 cfu/g
same,Escherichia coli,[2]; [11],<3 cfu/g
same,Escherichia coli,[2]; [12],4 cfu/g
same,Escherichia coli,[2]; [13],<3 cfu/g
same,Escherichia coli,[2]; [14],<3 cfu/g
